According to patent US7674596B2 (priority 2005, dated 2010):
Entries after “also recorded” stand apart in the source; their conditions may differ.

What was measured:
Assay type in all cases: cell-based
[1] = biological target: T1, human potassium channel Kir2.1 (Homo sapiens, UniProt P63252); assay: Gramicidin-perforated current-clamp measurement of membrane potential of clone #30; settings: 100 μM barium
T1 construct: expressed in transfected cells; host or cells: HEK293 stably expressing human T-type α1H; clone #30 (HEK293-TChH-IRK2.1, KCTC 10780BP)
T1 sequence (P63252 1-427): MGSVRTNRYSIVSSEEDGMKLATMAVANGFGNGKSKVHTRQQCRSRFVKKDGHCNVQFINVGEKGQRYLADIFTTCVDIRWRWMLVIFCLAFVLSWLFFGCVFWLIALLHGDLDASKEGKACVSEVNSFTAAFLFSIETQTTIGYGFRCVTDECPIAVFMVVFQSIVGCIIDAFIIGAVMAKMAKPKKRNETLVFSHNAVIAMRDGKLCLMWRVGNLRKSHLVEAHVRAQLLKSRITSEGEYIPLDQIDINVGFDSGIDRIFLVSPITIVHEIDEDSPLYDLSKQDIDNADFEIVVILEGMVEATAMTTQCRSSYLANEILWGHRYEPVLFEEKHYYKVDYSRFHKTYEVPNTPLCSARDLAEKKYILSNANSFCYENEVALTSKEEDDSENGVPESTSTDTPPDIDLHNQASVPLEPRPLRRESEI
Description: (§1) The procedures and conditions of the experiment were as follows. The T-type calcium current and inwardly rectifying potassium current (referred as “IRK current” hereinafter) were recorded by the whole-cell ruptured patch-clamp method (Hamil et al., Pflugers Arch., 391:85-100, 198; Jeong and Ikeda, Neuron, 21:1201-1212, 1998), a voltage clamp technique, to confirm which clone could best express the human T-type α1H channel and human potassium channel Kir2.1. In the meantime, the resting membrane potential of the clones that were confirmed by the measurement of calcium and potassium currents was monitored by the gramicidin-perforated current-clamp method (Akaike, Prog. Biophys. Mol. Biol., 65:251-264, 1997).
(§2) The patch electrode used in the measurement above was prepared with a borosilicate glass tube (Corning, USA) by a P-97 flaming brown micro-pipette puller (Sutter Instrument, USA). […] The cell capacitance and series resistance were adjusted to more than 80% by using Axopatch-1D (Axon Instruments, USA) or EPC-10 amplifier (HEKA, Germany). S4 (prepared by Dr. Stephen R. Ikeda, USA) using ITC18 (Instrutech, USA) or Pulse (HEKA, Germany) was used for the generation and data collection of the voltage-stimulating protocol. […] The results were recorded in a computer. […]
(§3) The T-type α1H channel current, activated at −50 mV and showing maximum activity at −30 mV, was recorded as well. […]

[2] = biological target: T1, human potassium channel Kir2.1; assay: Whole-cell ruptured patch-clamp recording of inwardly rectifying potassium (IRK) current in clone #30; set-up: dose or concentration left out as unconfirmed; settings: Ba^2+, voltage clamp
Description: as §1, §2, §3

T-type α1H channel [3] = biological target: T2, T-type α1H channel (Homo sapiens, UniProt O95180); assay: Fluo-3 fluorescent calcium imaging (cooled CCD) in clone #30 cells (HEK293-TChH-IRK2.1); settings: for increase of intracellular calcium signal (fluorescent image) upon KCl depolarization: 60 mM KCl
T2 construct: expressed in transfected cells; clone #30, KCTC 10780BP
T2 sequence (O95180 whole entry): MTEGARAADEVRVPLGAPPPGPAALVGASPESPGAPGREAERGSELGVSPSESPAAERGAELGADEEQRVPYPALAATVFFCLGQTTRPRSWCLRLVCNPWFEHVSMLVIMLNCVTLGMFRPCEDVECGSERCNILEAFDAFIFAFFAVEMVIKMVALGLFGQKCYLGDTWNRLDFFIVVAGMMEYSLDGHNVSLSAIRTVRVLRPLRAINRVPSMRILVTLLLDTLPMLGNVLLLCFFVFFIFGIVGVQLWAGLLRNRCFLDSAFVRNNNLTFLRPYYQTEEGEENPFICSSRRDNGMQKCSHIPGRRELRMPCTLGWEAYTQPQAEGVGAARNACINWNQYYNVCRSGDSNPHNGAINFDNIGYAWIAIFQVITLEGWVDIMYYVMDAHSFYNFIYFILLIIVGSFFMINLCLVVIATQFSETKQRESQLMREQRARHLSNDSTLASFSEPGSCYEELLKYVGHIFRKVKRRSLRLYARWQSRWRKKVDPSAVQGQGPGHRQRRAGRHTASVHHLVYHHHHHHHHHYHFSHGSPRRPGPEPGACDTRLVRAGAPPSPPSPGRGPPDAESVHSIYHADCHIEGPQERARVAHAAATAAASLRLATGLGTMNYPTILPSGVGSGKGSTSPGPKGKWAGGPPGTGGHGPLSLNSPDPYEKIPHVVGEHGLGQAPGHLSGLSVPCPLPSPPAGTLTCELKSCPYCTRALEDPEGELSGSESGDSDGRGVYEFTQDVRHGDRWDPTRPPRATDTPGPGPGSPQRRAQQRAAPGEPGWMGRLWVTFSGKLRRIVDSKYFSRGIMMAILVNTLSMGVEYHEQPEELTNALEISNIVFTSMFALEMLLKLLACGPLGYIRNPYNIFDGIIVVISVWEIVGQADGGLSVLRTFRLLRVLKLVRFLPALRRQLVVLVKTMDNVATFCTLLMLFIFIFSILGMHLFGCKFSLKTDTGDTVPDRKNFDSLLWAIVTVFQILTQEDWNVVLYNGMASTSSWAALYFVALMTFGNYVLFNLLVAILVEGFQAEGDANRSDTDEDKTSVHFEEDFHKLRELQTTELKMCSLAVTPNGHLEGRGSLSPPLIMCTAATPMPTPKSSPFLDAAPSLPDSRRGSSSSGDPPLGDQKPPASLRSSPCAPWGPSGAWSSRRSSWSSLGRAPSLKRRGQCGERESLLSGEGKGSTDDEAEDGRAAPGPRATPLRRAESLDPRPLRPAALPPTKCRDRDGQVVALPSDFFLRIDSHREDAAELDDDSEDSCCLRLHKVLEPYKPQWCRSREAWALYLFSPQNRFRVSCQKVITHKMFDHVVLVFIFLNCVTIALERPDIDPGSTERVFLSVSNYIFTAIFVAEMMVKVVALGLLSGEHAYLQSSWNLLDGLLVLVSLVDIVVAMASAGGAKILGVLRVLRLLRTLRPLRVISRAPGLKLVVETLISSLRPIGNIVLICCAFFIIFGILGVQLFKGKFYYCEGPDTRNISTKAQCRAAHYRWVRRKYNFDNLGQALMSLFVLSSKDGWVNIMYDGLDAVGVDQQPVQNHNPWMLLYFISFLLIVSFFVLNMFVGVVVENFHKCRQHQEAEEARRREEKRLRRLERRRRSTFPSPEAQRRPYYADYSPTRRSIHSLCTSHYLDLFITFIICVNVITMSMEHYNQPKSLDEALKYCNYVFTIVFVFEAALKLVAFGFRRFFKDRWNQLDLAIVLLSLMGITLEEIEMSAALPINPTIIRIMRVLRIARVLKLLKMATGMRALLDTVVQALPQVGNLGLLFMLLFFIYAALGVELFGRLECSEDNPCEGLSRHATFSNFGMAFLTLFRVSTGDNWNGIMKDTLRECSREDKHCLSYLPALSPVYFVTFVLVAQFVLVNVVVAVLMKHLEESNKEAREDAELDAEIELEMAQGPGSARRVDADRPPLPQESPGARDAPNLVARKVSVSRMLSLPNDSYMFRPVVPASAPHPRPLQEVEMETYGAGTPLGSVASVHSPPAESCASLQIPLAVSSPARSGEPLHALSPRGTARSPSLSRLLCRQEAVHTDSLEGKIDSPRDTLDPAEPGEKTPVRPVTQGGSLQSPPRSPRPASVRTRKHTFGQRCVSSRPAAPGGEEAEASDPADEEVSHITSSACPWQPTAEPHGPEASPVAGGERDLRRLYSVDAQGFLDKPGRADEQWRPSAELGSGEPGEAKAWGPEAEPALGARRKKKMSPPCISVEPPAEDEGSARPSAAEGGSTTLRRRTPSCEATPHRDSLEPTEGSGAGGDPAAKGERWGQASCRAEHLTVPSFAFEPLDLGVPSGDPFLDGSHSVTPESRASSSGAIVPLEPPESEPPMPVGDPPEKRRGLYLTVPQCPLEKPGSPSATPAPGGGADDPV
Description: (§4) Intracellular calcium concentrations were measured by the ratio fluorescence system (Ratiomaster, Photon Technology International, USA) installed on a fluorescent microscope (Nikon TE2000, Japan) as well as CoolSNAP CCD imaging system (Loafer Scientific, USA). Particularly, Fura-2/AM or Fluo-3 (Molecular Probes, USA) was added up to 5 μM to cells cultured on a cover slip, followed by loading at room temperature for 30-60 minutes with the light blocked. After the loading, the cells were washed twice with an extracellular flushing medium, and then the cover slip, on which the cells were stuck, was put on a perfusion chamber on the microscope. In the case of Fura-2/AM, the changes in the intracellular calcium (Ca^2+) concentration were measured using a photomultiplier (PM) tube in the ratio of fluorescence (F340/F380 t) emitted at 510 nm when 340 nm and 380 nm were used for excitation respectively. When Fluo-3 was used, fluorescent ratios were not measured but the fluorescent image emitted at 525 nm was recorded and captured by a cooled CCD, which was then analyzed by the Metaimage 6.1 program (Imaging Corporation, USA).
To measure fluorescent calcium image, Fluo-3 was loaded to clone #30 cells.

T-type α1H channel [4] = biological target: T2, T-type α1H channel; assay: Fura-2/AM ratio fluorescence (F340/F380) calcium assay in single cell of clone #30 (HEK293-TChH-IRK2.1) depolarized by KCl; settings: depolarization by 60 mM KCl, pre-treatment with mibefradil (3 μM elsewhere in the source)
Description: as §4

[Ba+2] [Ba^2+, barium]
membrane potential response [1]: Ca^2+ spikes or action potentials were induced with depolarization | IRK current [2]: blocked

[Ni+2] [Ni^2+, nickel (Ni^2+)]
increase of intracellular calcium signal (fluorescent image) upon KCl depolarization (T-type α1H channel [3]; pre-treatment with 100 μM nickel): completely inhibited | increase of intracellular calcium signal (fluorescent image) upon KCl depolarization (T-type α1H channel [3]; pre-treatment with 100 mM Ni^2+): completely inhibited

COCC(=O)O[C@]1(CCN(C)CCCc2nc3ccccc3[nH]2)CCc2cc(F)ccc2[C@@H]1C(C)C [mibefradil]
increase of intracellular calcium signal (fluorescent image) upon KCl depolarization (T-type α1H channel [3]; pre-treatment with mibefradil (3 μM elsewhere in the source)): completely inhibited; also recorded: completely blocked | intracellular calcium level at non-depolarized resting phase (number of red cells) (T-type α1H channel [3]; no KCl, mibefradil (3 μM elsewhere in the source)): reduced remarkably; also recorded: remarkably reduced | increase in intracellular calcium (F340/F380 ratio) by influx through T-type α1H channels (T-type α1H channel [4]): completely blocked; also recorded: completely inhibited
